The term Papp denotes the rate of passage across a membrane or cell layer, normalised by area and donor concentration.

These results are taken from publication PMC3506268, “Microneedle pretreatment enhances the percutaneous permeation of hydrophilic compounds with high melting points” (BMC Pharmacology & Toxicology, 2012).

One series in a line: in vitro. The following applies: for Jmax: 80% saturated solution in PBS, 6 h; for Jmax / Papp at 6 h / recovery: mean, n = 5–6; for Papp at 6 h / recovery: female, Holstein Friesian, bovine; for Papp at 6 h: 10^-6 Papp. On the procedure: The skin was obtained from bovine udders, all of which were harvested from Holstein Friesian cows which died at a slaughterhouse for food production, and the cleaned skin samples were stored at - 20°C until use. After thawing at room temperature split skin samples with a thickness of 600 μm ± 50 μm were produced using an electrical microtome (Zimmer, Eschbach, Germany), whereby damaged skin samples were excluded from the study.
Prior to the experiment split skin samples with appropriate size of 2 x 2 cm were incubated in phosphate buffered saline (PBS) for 30 minutes. They were placed on a styropor panel and fixed with needles beyond the subsequent diffusion area of the skin samples before the microneedle rollers were rolled in four axes radial over the skin surface (Figure 1 C).
The diffusion experiments were performed in Franz-type diffusion cells obtained from PermeGear (Riegelsville, PA, USA) with a receptor chamber of approximately 12 ml and a diffusion area of approximately 1.77 cm². Sonicated PBS was used as receptor fluid. […] The donor chambers were covered with parafilm® (American Can Company, Baltimore, USA) and were checked for precipitation of the compounds during the whole experiment. Aliquots were taken from the receptor fluid and replaced by the same amount of fresh PBS at 0, 0.5, 1, 2, 4, and 6 hours. Each treatment (untreated control, 200 μm microneedle, and 300 μm microneedle) was performed in duplicate per animal (n = 6).
The receptor fluid samples (100 μl) were analysed by high-performance liquid-chromatography, the methodology of which has derived from recent studies. […] The separation took place on a reversed phase column (LiChroCART 125–4, LiChrospher 100 RP-18e, 5 μm (Merck, Darmstadt, Germany)), which was maintained at 40°C.
The linear part of the gradient of the permeation curve (time vs. concentration in the receptor fluid) represents the maximum flux Jmax (μg/cm²/h) and is employed to calculate the apparent permeability coefficient Papp (cm/s) according to Niedorf et al. 2008 [23]. Differences between control samples and pretreated skin samples were evaluated by Friedman test followed by Dunn´s multiple comparison test (GraphPad Prism 4.01 (GraphPad Software Inc., San Diego, USA). A 0.05 significance level was adopted.

On the set-up of series [1]: method as in PMID 20624460. The following applies: microneedle treated skin, in vitro; cited from earlier work.
On the set-up of series [2]: method as in earlier work. The following applies: cited from earlier work.
The mark [3] stands for this setting: 200 μm microneedle pretreatment.
Where [4] appears, read: 300 μm microneedle pretreatment.
[5] abbreviates: 300 μm microneedle pretreatment, * = p<0.05 versus control.

Like-named read-outs stand apart in the source and are kept apart here. A value given as a limit tells only on which side of the number the result lay.

Take `CC(C(=O)O)c1cccc(C(=O)c2ccccc2)c1` (stereo not drawn) [Ketoprofen, ketoprofen]: in “in vitro” (setting [3]), the “Higher flux through pretreated skin compared to untreated skin” value is listed as “twofold”, the Jmax turned out to be 2.36 μg/cm²/h, the Papp at 6 h came out at 0.28 ×10⁻⁶ cm/s and the recovery stood at 0.76%. In the series “in vitro” (setting [4]), the “Higher flux through pretreated skin compared to untreated skin” value is listed as “threefold”; the “Increase of maximum flux (Jmax) and Papp-value versus untreated skin” value (from here on “Increase of maximum flux”) is “up to 3 fold”; the Jmax is listed as 2.99 μg/cm²/h; the recovery amounted to 0.96%. Further, the apparent permeability (Papp) at 6 h in the series “in vitro” (setting [5]) was 0.35 ×10⁻⁶ cm/s. Besides, in the series “in vitro” (untreated control skin), the Papp at 6 h was determined as 0.12 ×10⁻⁶ cm/s, the recovery was found to be 0.3% and the Jmax turned out to be 1.03 μg/cm²/h.
As to `CC(=O)Oc1ccccc1C(=O)O` [acetylsalicylic acid], the Permeation enhancement result in series [1] was “up to 2 times”.
As for `O=C(O)Cc1ccccc1Nc1c(Cl)cccc1Cl` [Diclofenac], the Jmax amounted to 8.75 μg/cm²/h in the series “in vitro” (setting [3]), 11.55 μg/cm²/h in the series “in vitro” (setting [4]) and 1.72 μg/cm²/h in “in vitro” (untreated control skin). Also, in “in vitro” (setting [4]), the “Increase of maximum flux” value was ≤ 7 fold. The Papp at 6 h worked out at 1.24 ×10⁻⁶ cm/s in the series “in vitro” (setting [5]) and 0.18 ×10⁻⁶ cm/s in the series “in vitro” (untreated control skin). Further, the figures for the recovery in “in vitro” (setting [3]), in “in vitro” (setting [4]) and in “in vitro” (untreated control skin) were 3.17%, 3.54% and 0.49%, respectively. Also, the logKo/w is on record as 0.7 in series [2] and < 1 in series [2] (listed as diclofenac).
In the case of `CC(C)Cc1ccc(C(C)C(=O)O)cc1` (stereo not drawn) [Ibuprofen, ibuprofen], in “in vitro” (setting [3]), the “Higher flux through pretreated skin compared to untreated skin” value was “twofold” and the recovery turned out to be 11.2%. In addition, in “in vitro” (setting [4]), the “Higher flux through pretreated skin compared to untreated skin” value is “threefold”; the “Increase of maximum flux” value was “up to 3 fold”; the recovery is 17.8%. Besides, the recovery in “in vitro” (untreated control skin) was determined as 6.76%.
